# Measured values: patent US9302999B2, “Substituted triazoles as herbicides” (E. I. DU PONT DE NEMOURS AND COMPANY, priority 2012, dated 2016)
# Like-named read-outs stand apart in the source and are kept apart here.
# Columns and labels:
# Type in all cases: in vivo
# [1] = tested on: ryegrass, Italian (Italian ryegrass, Lolium multiflorum); test: Test C pre-/postemergence: ryegrass, Italian
# Summary of the method: (§1)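 Visual injury scored 0–100 (100 = complete control) against untreated controls after 13–15 greenhouse days. Surfactant-containing solvent formulations applied either to soil after sowing (loam/sand) or over 1- to 4-leaf plants, 2–18 cm tall.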
# [2] = tested on: corn (Zea mays); test: Test C pre-/postemergence: corn
# Summary of the method: as §1
# [3] = tested on: sedge, umbrella (small-flower umbrella sedge Cyperus difformis); test: Test B flooded paddy: sedge, umbrella; conditions: Flood, applied to paddy water at 2-leaf stage, visually evaluated after 13 to 15 days
# Summary of the method: (§2)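 Two-leaf-stage plants, pots flooded (3 cm above soil) and treated through the water, which stayed at that depth. After 13–15 days in greenhouse conditions, visual assessment versus controls: 0 is no effect, 100 complete control, dash means no result.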
# [4] = tested on: large crabgrass (Digitaria sanguinalis); test: Test C pre-/postemergence: large crabgrass
# Summary of the method: as §1
# [5] = tested on: barnyardgrass (Echinochloa crus-galli); test: Test B flooded paddy: barnyardgrass; conditions: Flood, applied to paddy water at 2-leaf stage, visually evaluated after 13 to 15 days
# Summary of the method: as §2
# [6] = tested on: chickweed (common chickweed, Stellaria media); test: Test C postemergence: chickweed
# Summary of the method: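 Response values are visual ratings, 0 (no effect) to 100 (complete control), made by comparison with untreated controls 13 to 15 days after postemergence treatment of greenhouse-grown potted plants that were 2 to 18 cm high at spraying.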
# [7] = tested on: velvetleaf (Abutilon theophrasti); test: Test A pre-/postemergence: velvetleaf; conditions: for pest or weed control at 125 g/ha / pest or weed control at 500 g/ha: Abutilon theophrasti, 240 h
# Summary of the method: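 Each species received preemergence soil-directed spraying and, at the same time, postemergence treatment of seedlings 2–10 cm tall. Formulation: non-phytotoxic solvent mixture including surfactant. Response assessed visually about ten days on, relative to untreated controls, 0–100 scale.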
# [8] = tested on: ducksalad (Heteranthera limosa); test: Test B flooded paddy: ducksalad; conditions: Flood, applied to paddy water at 2-leaf stage, visually evaluated after 13 to 15 days
# Summary of the method: as §2
# [9] = tested on: winter wheat (Triticum aestivum); test: Test C pre-/postemergence: winter wheat
# Summary of the method: as §1
# [10] = tested on: blackgrass (Alopecurus myosuroides); test: Test C pre-/postemergence: blackgrass
# Summary of the method: as §1
# [11] = tested on: morningglory (Ipomoea coccinea); test: Test C pre-/postemergence: morningglory; conditions: Preemergence
# Summary of the method: as §1
# [12] = Postemergence, 31 g ai/ha, scale 0 to 100 (0 no effect, 100 complete control)
# [13] = Postemergence, 62 g ai/ha, scale 0 to 100 (0 no effect, 100 complete control)
# [14] = Postemergence, 125 g ai/ha, scale 0 to 100, 0 no effect, 100 complete control
# [15] = Postemergence, 250 g ai/ha, scale 0 to 100
# [16] = Preemergence, 31 g ai/ha, scale of 0 to 100, 0 is no effect, 100 is complete control
# [17] = Preemergence, 62 g ai/ha, scale of 0 to 100, 0 is no effect, 100 is complete control
# [18] = Preemergence, 125 g ai/ha, scale 0 to 100, 0 no effect, 100 complete control
# [19] = Preemergence, 250 g ai/ha, scale 0 to 100, 0 no effect, 100 complete control
# [20] = Preemergence, 62 g ai/ha, scale 0 to 100, 0 no effect, 100 complete control
# [21] = 125 g ai/ha, scale 0 to 100, 0 no effect, 100 complete control
# [22] = Postemergence, 125 g ai/ha, 0 to 100 scale, 0 is no effect, 100 is complete control
# [23] = Postemergence, 500 g ai/ha, visual rating on 0 to 100 scale (0 no effect, 100 complete control), approximately ten days
# [24] = 31 g ai/ha, scale of 0 to 100, 0 is no effect, 100 is complete control
# [25] = 62 g ai/ha, scale of 0 to 100, 0 is no effect, 100 is complete control
# [26] = 250 g ai/ha, scale 0 to 100, 0 no effect, 100 complete control
# [27] = Preemergence, 125 g ai/ha, 0 to 100 scale where 0 is no effect and 100 is complete control
# [28] = Preemergence, 500 g ai/ha, 0 to 100 scale (0 no effect, 100 complete control)
smiles,measurement,setting,value
Fc1ccc(-n2nc(Cc3ccnc(C(F)(F)F)c3)c(OC(F)F)n2)cc1 [Compound 25],"Plant response rating, Ryegrass, Italian",[1]; [12],5
same,"Plant response rating, Ryegrass, Italian",[1]; [13],5
same,"Plant response rating, Ryegrass, Italian",[1]; [14],5
same,"Plant response rating, Ryegrass, Italian",[1]; [15],5
same,"Plant response rating, Ryegrass, Italian",[1]; [16],5
same,"Plant response rating, Ryegrass, Italian",[1]; [17],35
same,"Plant response rating, Ryegrass, Italian",[1]; [18],45
same,"Plant response rating, Ryegrass, Italian",[1]; [19],90
same,"Plant response rating, Corn",[2]; [12],20
same,"Plant response rating, Corn",[2]; [13],20
same,"Plant response rating, Corn",[2]; [14],20
same,"Plant response rating, Corn",[2]; [15],25
same,"Plant response rating, Corn",[2]; [16],0
same,"Plant response rating, Corn",[2]; [20],0
same,"Plant response rating, Corn",[2]; [18],5
same,"Plant response rating, Corn",[2]; [19],10
same,"Plant response rating, Sedge, Umbrella (0 to 100 scale, 0 is no effect, 100 is complete control)",[3]; 250 g ai/ha,95
same,"Plant response rating, Crabgrass, Large",[4]; [12],15
same,"Plant response rating, Crabgrass, Large",[4]; [13],20
same,"Plant response rating, Crabgrass, Large",[4]; [14],40
same,"Plant response rating, Crabgrass, Large",[4]; [15],65
same,"Plant response rating, Crabgrass, Large",[4]; [16],98
same,"Plant response rating, Crabgrass, Large",[4]; [17],100
same,"Plant response rating, Crabgrass, Large",[4]; [18],100
same,"Plant response rating, Crabgrass, Large",[4]; [19],100
same,"Plant response rating, Barnyardgrass (0 to 100 scale, 0 is no effect, 100 is complete control)",[5]; 250 g ai/ha,30
same,"Plant response rating, Chickweed","[6]; 31 g ai/ha, scale 0 to 100 (0 no effect, 100 complete control)",30
same,"Plant response rating, Chickweed","[6]; 62 g ai/ha, scale 0 to 100 (0 no effect, 100 complete control)",60
same,"Plant response rating, Chickweed",[6]; [21],98
same,"Plant response rating, Chickweed","[6]; 250 g ai/ha, scale 0 to 100",98
same,Velvetleaf plant response rating,[7]; [22],80
same,Velvetleaf plant response rating,[7]; [23],100
same,"Plant response rating, Velvetleaf","[7]; Preemergence, 125 g ai/ha, 0 to 100 scale (0 no effect, 100 complete control)",20
same,"Plant response rating, Velvetleaf","[7]; Preemergence, 500 g ai/ha, 0 to 100 scale, 0 is no effect, 100 is complete control",80
same,"Plant response rating, Ducksalad (0 to 100 scale, 0 is no effect, 100 is complete control)",[8]; 250 g ai/ha,90
same,"Plant response rating, Wheat",[9]; [12],10
same,"Plant response rating, Wheat",[9]; [13],20
same,"Plant response rating, Wheat",[9]; [14],30
same,"Plant response rating, Wheat",[9]; [15],30
same,"Plant response rating, Wheat",[9]; [16],0
same,"Plant response rating, Wheat",[9]; [17],5
same,"Plant response rating, Wheat",[9]; [18],10
same,"Plant response rating, Wheat",[9]; [19],35
same,"Plant response rating, Blackgrass",[10]; [12],10
same,"Plant response rating, Blackgrass",[10]; [13],35
same,"Plant response rating, Blackgrass",[10]; [14],40
same,"Plant response rating, Blackgrass",[10]; [15],60
same,"Plant response rating, Blackgrass",[10]; [16],60
same,"Plant response rating, Blackgrass",[10]; [20],85
same,"Plant response rating, Blackgrass",[10]; [18],95
same,"Plant response rating, Blackgrass",[10]; [19],100
"Cc1nn(-c2ccc(F)cc2F)nc1Cc1ccnc(C(F)(F)F)c1 [Compound 54, 4-[[2-(2,4-difluorophenyl)-5-methyl-2H-1,2,3-triazol-4-yl]methyl]-2-(trifluoromethyl)pyridine]","Plant response rating, Sedge, Umbrella (0 to 100 scale, 0 is no effect, 100 is complete control)",[3]; 250 g ai/ha,85
same,"Plant response rating, Barnyardgrass (0 to 100 scale, 0 is no effect, 100 is complete control)",[5]; 250 g ai/ha,30
same,pest or weed control at 125 g/ha,"[7]; post-emergence, Postemergence, 125 g ai/ha, 0 to 100 scale, 0 is no effect, 100 is complete control, read-out: Velvetleaf plant response rating",90%
same,pest or weed control at 500 g/ha,"[7]; post-emergence, Postemergence, 500 g ai/ha, visual rating on 0 to 100 scale (0 no effect, 100 complete control), approximately ten days, read-out: Velvetleaf plant response rating",100%
same,pest or weed control at 125 g/ha,"[7]; pre-emergence, Preemergence, 125 g ai/ha, 0 to 100 scale (0 no effect, 100 complete control), read-out: Plant response rating, Velvetleaf",30%
same,pest or weed control at 500 g/ha,"[7]; pre-emergence, Preemergence, 500 g ai/ha, 0 to 100 scale, 0 is no effect, 100 is complete control, read-out: Plant response rating, Velvetleaf",60%
same,"Plant response rating, Ducksalad (0 to 100 scale, 0 is no effect, 100 is complete control)",[8]; 250 g ai/ha,85
Cc1nn(-c2ccc(F)cc2F)nc1Oc1ccnc(C(F)(F)F)c1 [Compound 146],"Plant response rating, Ryegrass, Italian",[1]; [16],0
same,"Plant response rating, Ryegrass, Italian",[1]; [17],30
same,"Plant response rating, Ryegrass, Italian",[1]; [18],55
same,"Plant response rating, Ryegrass, Italian",[1]; [19],90
same,"Plant response rating, Corn",[2]; [16],0
same,"Plant response rating, Corn",[2]; [17],0
same,"Plant response rating, Corn",[2]; [18],15
same,"Plant response rating, Corn",[2]; [19],25
same,"Plant response rating, Sedge, Umbrella (0 to 100 scale, 0 is no effect, 100 is complete control)",[3]; 250 g ai/ha,80
same,"Plant response rating, Crabgrass, Large",[4]; [16],98
same,"Plant response rating, Crabgrass, Large",[4]; [17],100
same,"Plant response rating, Crabgrass, Large",[4]; [18],100
same,"Plant response rating, Crabgrass, Large",[4]; [19],100
same,"Plant response rating, Barnyardgrass (0 to 100 scale, 0 is no effect, 100 is complete control)",[5]; 250 g ai/ha,50
same,"Plant response rating, Morningglory",[11]; [24],35
same,"Plant response rating, Morningglory",[11]; [25],40
same,"Plant response rating, Morningglory",[11]; [21],45
same,"Plant response rating, Morningglory",[11]; [26],90
same,"Plant response rating, Velvetleaf",[7]; [22],70
same,Velvetleaf plant response rating,[7]; [23],100
same,"Plant response rating, Velvetleaf",[7]; [27],10
same,"Plant response rating, Velvetleaf",[7]; [28],50
same,"Plant response rating, Ducksalad (0 to 100 scale, 0 is no effect, 100 is complete control)",[8]; 250 g ai/ha,60
same,"Plant response rating, Wheat",[9]; [17],0
same,"Plant response rating, Wheat",[9]; [18],0
same,"Plant response rating, Wheat",[9]; [19],10
same,"Plant response rating, Blackgrass",[10]; [16],50
same,"Plant response rating, Blackgrass",[10]; [17],70
same,"Plant response rating, Blackgrass",[10]; [18],90
same,"Plant response rating, Blackgrass",[10]; [19],90
CCOCc1nn(-c2ccc(F)cc2)nc1Oc1ccnc(C(F)(F)F)c1 [Compound 163],"Plant response rating, Ryegrass, Italian",[1]; [16],10
same,"Plant response rating, Ryegrass, Italian",[1]; [17],45
same,"Plant response rating, Ryegrass, Italian",[1]; [18],65
same,"Plant response rating, Ryegrass, Italian",[1]; [19],85
same,"Plant response rating, Corn",[2]; [16],10
same,"Plant response rating, Corn",[2]; [17],10
same,"Plant response rating, Corn",[2]; [19],10
same,"Plant response rating, Sedge, Umbrella (0 to 100 scale, 0 is no effect, 100 is complete control)",[3]; 125 g ai/ha,80
same,"Plant response rating, Crabgrass, Large",[4]; [16],65
same,"Plant response rating, Crabgrass, Large",[4]; [17],100
same,"Plant response rating, Crabgrass, Large",[4]; [18],100
same,"Plant response rating, Crabgrass, Large",[4]; [19],100
same,"Plant response rating, Barnyardgrass (0 to 100 scale, 0 is no effect, 100 is complete control)",[5]; 125 g ai/ha,15
same,"Plant response rating, Morningglory",[11]; [24],20
same,"Plant response rating, Morningglory",[11]; [25],25
same,"Plant response rating, Morningglory",[11]; [21],30
same,"Plant response rating, Morningglory",[11]; [26],75
same,"Plant response rating, Velvetleaf",[7]; [22],40
same,Velvetleaf plant response rating,"[7]; Postemergence, 500 g ai/ha, 0 to 100 scale, 0 is no effect, 100 is complete control",100
same,"Plant response rating, Velvetleaf",[7]; [27],0
same,"Plant response rating, Velvetleaf",[7]; [28],20
same,"Plant response rating, Ducksalad (0 to 100 scale, 0 is no effect, 100 is complete control)",[8]; 125 g ai/ha,70
same,"Plant response rating, Wheat",[9]; [17],0
same,"Plant response rating, Wheat",[9]; [18],0
same,"Plant response rating, Wheat",[9]; [19],0
same,"Plant response rating, Blackgrass",[10]; [16],5
same,"Plant response rating, Blackgrass",[10]; [17],85
same,"Plant response rating, Blackgrass",[10]; [18],90
same,"Plant response rating, Blackgrass",[10]; [19],95
